Test results reported in US4788211A, “Antifungal compound and AFC complex produced from actinomadura SCC 1838” (priority 1987, dated 1988).
Values after ≈ are worked out from the molar mass of the structure shown.

Key:
Candida (seven species) = assay: in vitro antifungal activity (geometric mean MIC), Candida; format: cell-based; conditions: for MIC: Candida, Candida (seven species)
Text: (§1) The in vitro antifungal results are summarized in Table II and provide the geometric mean MIC (mcg/mL).

iv LD50 in mice = conditions: mouse, in vivo
[1] = system: Dermatophytes (six species); assay: in vitro antifungal activity (geometric mean MIC), dermatophytes; format: cell-based; conditions: for MIC: Dermatophytes (six species)
Text: as §1

Candida = assay: intravaginal Candida infection in hamsters; format: in vivo
[2] = SDB (Sabouraud dextrose broth medium)

## N=C(N)NCCCCCCCCC(O)CCCCCCCC1NC(=N)NC1CC(O)CNC(=N)N (stereo not drawn) [compound of this invention]
Candida (seven species); EMEM (Eagles Minimum Essential Medium)
  MIC: < 0.03 µg/mL
Candida (seven species); MA Medium
  MIC: ≤ 1.4 µg/mL
Candida (seven species); [2]
  MIC: ≥ 58 µg/mL
Candida (seven species); seven species of Candida
  in vitro antifungal activity: very good in vitro antifungal activity
Iv LD50 in mice
  LD50: ~1.5 mg/kg
[1]; MA Medium
  MIC: 2.5 µg/mL (≈ 5.02 µM)
[1]; [2]
  MIC: ≤ 0.13 µg/mL
[1]; six species of dermatophytes
  in vitro antifungal activity: very good in vitro antifungal activity
Candida
  activity against an intravaginal Candida infection: slight activity
